Source: the supplement of paper PMC10307832

Columns and labels:
Test in all cases: relative viability (nuclei count vs DMSO), 5 days (fraction); higher = more cells survive
Olaparib + Foretinib = compound: O=C(c1cc(Cc2n[nH]c(=O)c3ccccc23)ccc1F)N1CCN(C(=O)C2CC2)CC1 [Olaparib] + COc1cc2c(Oc3ccc(NC(=O)C4(C(=O)Nc5ccc(F)cc5)CC4)cc3F)ccnc2cc1OCCCN1CCOCC1 [Foretinib] (partner 0.25 µM)
Summary of the method: (§1)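 Five library-drug doses in √10 steps were combined with a fixed anchor-drug dose, or a single drug was given alone, by pin tool to lung cancer cell lines in 1536-well plates the day after seeding. Nuclei were stained and counted after 5 days. Relative viability is the nuclei count in treated wells over that in vehicle wells, taken as the median of duplicate plates.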

Carfilzomib + Foretinib = compound: CC(C)C[C@H](NC(=O)[C@H](CCc1ccccc1)NC(=O)CN1CCOCC1)C(=O)N[C@@H](Cc1ccccc1)C(=O)N[C@@H](CC(C)C)C(=O)[C@@]1(C)CO1 [Carfilzomib] + COc1cc2c(Oc3ccc(NC(=O)C4(C(=O)Nc5ccc(F)cc5)CC4)cc3F)ccnc2cc1OCCCN1CCOCC1 [Foretinib] (partner 0.25 µM)
Summary of the method: as §1

Carfilzomib + Pemetrexed = compound: CC(C)C[C@H](NC(=O)[C@H](CCc1ccccc1)NC(=O)CN1CCOCC1)C(=O)N[C@@H](Cc1ccccc1)C(=O)N[C@@H](CC(C)C)C(=O)[C@@]1(C)CO1 [Carfilzomib] + Nc1nc2[nH]cc(CCc3ccc(C(=O)N[C@@H](CCC(=O)O)C(=O)O)cc3)c2c(=O)[nH]1 [Pemetrexed] (partner 0.2 µM)
Summary of the method: as §1

Carfilzomib + Navitoclax = compound: CC(C)C[C@H](NC(=O)[C@H](CCc1ccccc1)NC(=O)CN1CCOCC1)C(=O)N[C@@H](Cc1ccccc1)C(=O)N[C@@H](CC(C)C)C(=O)[C@@]1(C)CO1 [Carfilzomib] + CC1(C)CCC(c2ccc(Cl)cc2)=C(CN2CCN(c3ccc(C(=O)NS(=O)(=O)c4ccc(N[C@H](CCN5CCOCC5)CSc5ccccc5)c(S(=O)(=O)C(F)(F)F)c4)cc3)CC2)C1 [Navitoclax] (partner 0.5 µM)
Summary of the method: as §1

| Cell Line | relative viability (Olaparib + Foretinib; first compound 0.08 µM) | relative viability (Olaparib + Foretinib; first compound 0.253 µM) | relative viability (Olaparib + Foretinib; first compound 2.53 µM) | relative viability (Olaparib + Foretinib; first compound 8 µM) | relative viability (Carfilzomib + Foretinib; first compound 0.001 µM) | relative viability (Carfilzomib + Foretinib; first compound 0.003162 µM) | relative viability (Carfilzomib + Foretinib; first compound 0.01 µM) | relative viability (Carfilzomib + Foretinib; first compound 0.03162 µM) | relative viability (Carfilzomib + Foretinib; first compound 0.1 µM) | relative viability (Carfilzomib + Pemetrexed; first compound 0.001 µM) | relative viability (Carfilzomib + Pemetrexed; first compound 0.003162 µM) | relative viability (Carfilzomib + Pemetrexed; first compound 0.01 µM) | relative viability (Carfilzomib + Pemetrexed; first compound 0.03162 µM) | relative viability (Carfilzomib + Pemetrexed; first compound 0.1 µM) | relative viability (Carfilzomib + Navitoclax; first compound 0.001 µM) | relative viability (Carfilzomib + Navitoclax; first compound 0.003162 µM) | relative viability (Carfilzomib + Navitoclax; first compound 0.01 µM) | relative viability (Carfilzomib + Navitoclax; first compound 0.03162 µM) | relative viability (Carfilzomib + Navitoclax; first compound 0.1 µM) |
| --- | --- | --- | --- | --- | --- | --- | --- | --- | --- | --- | --- | --- | --- | --- | --- | --- | --- | --- | --- |
| LK-2 | 1.4 | 1.21 | 1.15 | 1.12 | 1.24 | 1.25 | 1.42 | 0.144 | 0.16 | 0.304 | 0.295 | 0.273 | 0.0987 | 0.0939 | 0.845 | 0.907 | 0.879 | 0.209 | 0.175 |
| LOU-NH91 | 0.943 | 0.957 | 0.998 | 0.939 | 0.934 | 1.04 | 0.875 | 0.303 | 0.224 | 0.368 | 0.451 | 0.471 | 0.314 | 0.335 | 0.703 | 0.832 | 0.42 | 0.19 | 0.204 |
| LU99A | 0.826 | 0.646 | 0.608 | 0.537 | 0.943 | 0.772 | 0.847 | 0.565 | 0.246 | 0.191 | 0.163 | 0.18 | 0.214 | 0.188 | 0.738 | 0.898 | 0.793 | 0.581 | 0.183 |
| LXF-289 | 1.06 | 0.91 | 1.07 | 0.983 | 1 | 0.945 | 0.948 | 0.464 | 0.0789 | 0.947 | 0.933 | 0.909 | 0.108 | 0.125 | 0.915 | 0.974 | 0.935 | 0.0853 | 0.0461 |
| NCI-H23 | 1.19 | 0.904 | 0.971 | 0.706 | 0.873 | 1.11 | 1.09 | 0.188 | 0.134 | 0.532 | 0.666 | 0.508 | 0.165 | 0.169 | 0.797 | 0.799 | 0.987 | 0.227 | 0.152 |
| NCI-H322M | 1.04 | 0.964 | 0.979 | 0.718 | 0.981 | 1.01 | 0.999 | 0.943 | 0.359 | 0.592 | 0.637 | 0.64 | 0.657 | 0.421 | 1.36 | 1.29 | 1.01 | 1.22 | 0.559 |
| NCI-H441 | 1.13 | 0.857 | 0.967 | 0.83 | 0.878 | 0.977 | 0.61 | 0.199 | 0.349 | 0.26 | 0.257 | 0.244 | 0.134 | 0.133 | 0.534 | 0.571 | 0.208 | 0.144 | 0.145 |
| NCI-H460 | 0.925 | 0.889 | 0.914 | 0.437 | 0.97 | 1.05 | 0.988 | 0.75 | 0.0297 | 0.0648 | 0.0611 | 0.0649 | 0.0671 | 0.0245 | 1.08 | 1.21 | 1.17 | 0.357 | 0.0107 |
| NCI-H520 | 0.848 | 0.761 | 0.624 | 0.359 | 0.781 | 0.999 | 0.695 | 0.17 | 0.203 | 0.664 | 0.712 | 0.568 | 0.169 | 0.131 | 1.04 | 1.37 | 0.797 | 0.183 | 0.168 |
| NCI-H596 | 0.927 | 0.82 | 0.828 | 0.534 | 0.813 | 0.84 | 0.812 | 0.195 | 0.148 | 0.486 | 0.519 | 0.421 | 0.329 | 0.244 | 0.906 | 1.04 | 1.14 | 0.353 | 0.153 |
| NCI-H647 | 1.19 | 1.04 | 1.13 | 1.07 | 1.19 | 1.33 | 1.26 | 0.0352 | 0.0362 | 0.193 | 0.179 | 0.126 | 0.0407 | 0.0343 | – | 1.33 | 0.841 | 0.087 | 0.0294 |
| NCI-H838 | 1.18 | 0.921 | 1.02 | 1.01 | 1.06 | 1.12 | 1.15 | 0.974 | 0.131 | 0.268 | 0.254 | 0.246 | 0.209 | 0.136 | 1.24 | 1.26 | 1.16 | 0.686 | 0.153 |
| NCI-H1355 | 1.12 | 0.941 | 1 | 0.832 | 0.995 | 1.07 | 1.03 | 0.714 | 0.198 | 1.01 | 1.03 | 1.08 | 1 | 0.282 | 0.792 | 1.02 | 0.979 | 0.486 | 0.133 |
| NCI-H1395 | 1.04 | 0.87 | 0.842 | 0.563 | 0.981 | 1.07 | 0.954 | 0.527 | 0.329 | – | 0.873 | 0.756 | 0.33 | 0.287 | 0.964 | 1.24 | 0.995 | 0.481 | 0.347 |
| NCI-H1437 | 1.3 | 1.12 | 1.08 | 0.914 | 1.29 | 1.4 | 1.29 | 1.19 | 0.284 | 0.282 | 0.352 | 0.334 | 0.273 | 0.286 | 1.08 | 1.12 | 1.12 | 0.759 | 0.12 |
| NCI-H1650 | 1.2 | 0.996 | 1.15 | 1.35 | 1.22 | 0.965 | 0.954 | 0.125 | 0.321 | 0.343 | 0.403 | 0.312 | 0.154 | 0.166 | – | 1.09 | 1.24 | 0.1 | 0.119 |
